Laboratory results from PMC3307802 (MedChemComm, 2011).

Assays:
KOP receptor [1] = conditions: cited from earlier work
KOP receptor [2] = assay: Previously published potency/efficacy at KOP receptors; format: biochemical; conditions: relative to 1
KOP receptor [3] = conditions: cited from earlier work; remark: listed apart in the source
KOP receptors [4] = biological target: T1, KOP receptors (Homo sapiens, UniProt P41145); format: binding
KOP receptors [5] = biological target: T1, KOP receptors; assay: biochemical; format: biochemical
KOP receptors [6] = biological target: T1, KOP receptors; conditions: cited from earlier work
[7] = system: cocaine-induced drug-seeking; conditions: rats; dose of 0.3 mg/kg or greater; cited from earlier work
humans = conditions: vaporized and inhaled; cited from earlier work
[8] = system: serotonin 5HT2A receptors; conditions: cited from earlier work

T1 sequence (P41145 whole entry): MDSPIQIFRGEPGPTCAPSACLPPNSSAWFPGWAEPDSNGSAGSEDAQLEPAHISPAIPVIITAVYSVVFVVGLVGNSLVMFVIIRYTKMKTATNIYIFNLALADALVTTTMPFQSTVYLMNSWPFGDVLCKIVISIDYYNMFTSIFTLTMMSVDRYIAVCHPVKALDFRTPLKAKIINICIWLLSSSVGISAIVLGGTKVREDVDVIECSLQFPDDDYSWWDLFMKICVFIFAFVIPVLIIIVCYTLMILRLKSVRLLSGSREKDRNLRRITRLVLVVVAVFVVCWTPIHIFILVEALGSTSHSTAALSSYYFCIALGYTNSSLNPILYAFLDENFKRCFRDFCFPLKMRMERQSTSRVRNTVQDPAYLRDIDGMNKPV

CCOC(=O)O[C@H]1C[C@@H](C(=O)OC)[C@]2(C)CC[C@H]3C(=O)O[C@H](c4ccoc4)C[C@]3(C)[C@H]2C1=O [Compound 11]
affinity at the KOP receptor vs. [3H]bremazocine (KOP receptor [1]; vs. [3H]bremazocine): no appreciable affinity | affinity at the KOP receptor vs. [3H]diprenorphine (KOP receptor [1]; vs. [3H]diprenorphine): no appreciable affinity

COC(=O)[C@@H]1C[C@H](OC(C)=O)C(=O)[C@H]2[C@@]1(C)CC[C@H]1C(=O)O[C@H](C(=O)N3CCCCC3)C[C@]21C [Compound 15, reference compound]
fold less potent than 1 as agonist (previously published analog) (KOP receptor [2]): approximately 125 fold | potency at KOP receptors ED50 (KOP receptor [3]): 5110 ± 1800 nM

COCO[C@H]1C[C@@H](C(=O)OC)[C@]2(C)CC[C@H]3C(=O)O[C@H](C(=O)N4CCCCC4)C[C@]3(C)[C@H]2C1=O [Compound 14]
KOP binding affinity worse compared to 3 (KOP receptors [4]): roughly 31 fold | KOP receptor binding affinity improved over that of 15 (KOP receptors [4]): approximately 2 fold | EC50 (KOP receptors [5]): 1930 ± 239 nM | fold less potent than 1 as agonist (KOP receptors [5]): 48 fold | fold less potent than 3 as agonist (KOP receptors [5]): roughly 322 fold | improvement in potency over 15 (KOP receptors [5]): approximately 2.5 fold

CCNC(=O)O[C@H]1C[C@@H](C(=O)OC)[C@]2(C)CC[C@H]3C(=O)O[C@H](c4ccoc4)C[C@]3(C)[C@H]2C1=O [Compound 12]
EC50 (KOP receptor [3]; read-out: KOP receptor potency EC50): > 1000 nM

CCOCO[C@H]1C[C@@H](C(=O)OC)[C@]2(C)CC[C@H]3C(=O)O[C@H](c4ccoc4)C[C@]3(C)[C@H]2C1=O [Compound 4]
EC50 (KOP receptors [5]): 0.65 ± 0.17 nM

COC(=O)[C@@H]1C[C@H](O[C@@H]2CCCO2)C(=O)[C@H]2[C@@]1(C)CC[C@H]1C(=O)O[C@H](c3ccoc3)C[C@]21C [Compound 7a]
EC50 (KOP receptors [5]): 1220 ± 230 nM | fold less potent than 1 as agonist (KOP receptors [5]): approximately 30 fold

COC(=O)[C@@H]1C[C@H](OC(C)=O)C(=O)[C@H]2[C@@]1(C)CC[C@H]1C(=O)O[C@H](c3ccoc3)C[C@]21C [Compound 1, salvinorin A]
ED50 ± SD (κ) (KOP receptors [6]): 40 ± 10 nM | effect on cocaine-primed reinstatement of drug seeking [7]: attenuate cocaine-primed reinstatement of drug seeking | active dose in humans (hallucinogen) (humans): 4.5 to 21 µg/kg | activity at serotonin 5HT2A receptors [8]: does not have activity

COC(=O)[C@@H]1C[C@H](O[C@@H]2CCCCO2)C(=O)[C@H]2[C@@]1(C)CC[C@H]1C(=O)O[C@H](c3ccoc3)C[C@]21C [Compound 5]
EC50 (KOP receptors [5]): 60 ± 6 nM

COC(=O)[C@@H]1C[C@H](O[C@H]2CCCO2)C(=O)[C@H]2[C@@]1(C)CC[C@H]1C(=O)O[C@H](c3ccoc3)C[C@]21C [Compound 7b]
EC50 (KOP receptors [5]): 690 ± 80 nM | fold less potent than 1 as agonist (KOP receptors [5]): ~17 fold
